Measurements: patent US5358945A, “Pyrimidine compound and pharmaceutically acceptable salts thereof” (Mitsui Petrochemical Industries, Ltd., priority 1990, dated 1994)

Tests used:
Mouse neuro 2a cells = assay: Neurite outgrowth of mouse neuroblastoma neuro 2a cells (Table 7); format: cell-based; settings: mean ± S.D.
Method: The biological activities in vitro of the compounds of formula (I) on cells of the nervous system were tested. The cells tested were mouse neuroblastoma cell line neuro-2a (Dainippon Pharmaceutical Co., Ltd.) which have been established as the cells of the nervous system. The above nerve cells were grown in an incubator at 37° C. in the presence of 5% carbon dioxide gas exponentially, and the cultured for a certain period of time together with the compounds of formula (I).
The effects of the compounds of this invention on neuroblastoma cells were examined by the following method.
Mouse neuro 2a cells in the logarithmic growth period in the Dulbecco's modified Eagle's medium [DMEM, containing 100 units/ml of penicillin G sodium and 100 micrograms/ml of streptomycin sulfate] containing 10% of FCS were seeded in a 48-well plate so that the number of cells was 1,000 cells/well, and cultured for one day in 0.25 ml of the culture fluid in each well in an incubator containing 5% of carbon dioxide gas in air at 37° C. The medium was replaced by a medium containing each antibiotics and FCS and the cells were further cultured for 24 hours. Then, a 4% aqueous glutaraldehyde solution in the same amount as a medium (0.25 ml) was added, and the culture was left to stand at room temperature for 2 hours to fix the cells. After washing with water, a 0.05% aqueous solution of methylene blue was added to stain the cells. Under a microscope, the number of cells containing outgrown neurites (cells having at least one neurite with a length of at least two times as large as the long diameter of the cell) was counted visually, and the proportion of these cells in the entire cells was calculated. The well was observed over 5 or more visual fields (at least 2% of the entire surface area of the well) continuous to the left and right from a mark put at the center of the well, and more than 200 cells was counted. One drug compound was used in 6 different concentrations at most, and three runs were conducted for each concentration.

[1] = tested on: Mouse neuroblastoma cells NS-20Y; assay: Neurite appearance in mouse neuroblastoma NS-20Y cells (Table 8); format: cell-based;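 also: cells grown in polyornithine-coated dishes, with timing counted from the start of culture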
mouse = assay: Acute toxicity in mouse (Table 10); format: in vivo
Method: The acute toxicity of the compounds of the invention was examined by the following method.
Male ddy-strain 5-week old mice, 4-6 per group, were used as experimental animals. Each of the compounds was dissolved or suspended in saline and administered perorally (p.o.) or intraperitoneally (i.p.), and the toxicity of the compound was assessed 24 hours after the administration.

[2] = i.p., 24 hours after administration

With `CN(C(=O)C12CC3CC(CC(C3)C1)C2)c1ccnc(N2CCC(c3ccccc3)CC2)n1` [Compound 160] the “Ratio of the number of cells having neurites with a length of at least two times as large as the diameter of cells to the total number of cells” value (shortened to “Ratio”) (Mouse neuro 2a cells; 0.03 mM) was 5.1 ± 1.2%, the “Ratio” value (Mouse neuro 2a cells; 0.1 mM) was 11.4 ± 1.3% and the “Ratio” value (Mouse neuro 2a cells; 0.3 mM) was 23.5 ± 2.9%. For the same compound, the “Ratio” value (Mouse neuro 2a cells; 1 mM) was 20.7 ± 2.7%, the “The number of cells in which neurites appeared/Total number of cells” value ([1]; 24 hour, 0.2 mM) was 2/50 and the “The number of cells in which neurites appeared/Total number of cells” value ([1]; 48 hour, 0.1 mM) was 3/50. The “Estimated LD50” value (mouse; in vivo, ip) was 500 to 1000 mg/kg.
With `CN(C(=O)c1ccc2c(c1)C(=O)OC2=O)c1ccnc(N2CCC(c3ccccc3)CC2)n1` [Compound 168] the “Ratio” value (Mouse neuro 2a cells; 0.3 mM) was 8.7 ± 2.0%, the “Ratio” value (Mouse neuro 2a cells; 1 mM) was 14.6 ± 3.7% and the “The number of cells in which neurites appeared/Total number of cells” value ([1]; 24 hour, 0.2 mM) was 3/50. For the same compound, the “The number of cells in which neurites appeared/Total number of cells” value ([1]; 48 hour, 0.5 mM) was 3/50 and the “Estimated LD50” value (mouse; in vivo, ip) was over 1000 mg/kg.
In the case of `CC(=O)c1ccc(C(=O)N(C)c2ccnc(N3CCC(c4ccccc4)CC3)n2)cc1` [Compound 176], the “Ratio” value (Mouse neuro 2a cells; 0.01 mM) is reported as 18.4 ± 2.0%, the “Ratio” value (Mouse neuro 2a cells; 0.03 mM) is reported as 11.5 ± 2.1% and the “Ratio” value (Mouse neuro 2a cells; 0.3 mM) is reported as 13.6 ± 0.9%. For the same compound, the “Ratio” value (Mouse neuro 2a cells; 1 mM) was 14.8 ± 2.9%, the “The number of cells in which neurites appeared/Total number of cells” value ([1]; 24 hour, 0.2 mM) was 4/50 and the “The number of cells in which neurites appeared/Total number of cells” value ([1]; 48 hour, 0.2 mM) was 4/50. For the same compound, the “Estimated LD50” value (mouse; in vivo, ip) was over 1000 mg/kg.
`COC(=O)c1ccc(C(=O)N(C)c2ccnc(N3CCCCC3)n2)cc1` [Compound 192] was tested, and the “Ratio” value (Mouse neuro 2a cells; 0.1 mM) was 8.0 ± 1.3%, the “Ratio” value (Mouse neuro 2a cells; 0.3 mM) was 13.8 ± 2.8% and the “The number of cells in which neurites appeared/Total number of cells” value ([1]; 24 hour, 0.2 mM) was 5/50. For the same compound, the “The number of cells in which neurites appeared/Total number of cells” value ([1]; 24 hour, 0.5 mM) was 5/50, the “The number of cells in which neurites appeared/Total number of cells” value ([1]; 48 hour, 0.2 mM) was 7/50 and the “The number of cells in which neurites appeared/Total number of cells” value ([1]; 48 hour, 0.5 mM) was 11/50. The “Estimated LD50” value (mouse; in vivo, ip) was 500 to 1000 mg/kg.
For `CN(C(=O)c1ccc(C=O)cc1)c1ccnc(N2CCCCC2)n1` [Compound 200], the “Ratio” value (Mouse neuro 2a cells; 0.1 mM) was 5.8 ± 1.3%, the “Ratio” value (Mouse neuro 2a cells; 0.3 mM) was 19.7 ± 3.1% and the “The number of cells in which neurites appeared/Total number of cells” value ([1]; 24 hour, 0.2 mM) was 8/50. The “The number of cells in which neurites appeared/Total number of cells” value ([1]; 24 hour, 0.5 mM) was 16/50, the “The number of cells in which neurites appeared/Total number of cells” value ([1]; 48 hour, 0.2 mM) was 11/50 and the “The number of cells in which neurites appeared/Total number of cells” value ([1]; 48 hour, 0.5 mM) was 18/50. For the same compound, the “Estimated LD50” value (mouse; [2]) was over 1000 mg/kg.
`CC(=O)c1ccc(C(=O)N(C)c2ccnc(N3CCCCC3)n2)cc1` [Compound 208] was tested, and the “Ratio” value (Mouse neuro 2a cells; 0.3 mM) was 7.9 ± 0.6%, the “Ratio” value (Mouse neuro 2a cells; 1 mM) was 12.7 ± 3.0% and the “The number of cells in which neurites appeared/Total number of cells” value ([1]; 24 hour, 0.2 mM) was 2/50. The “The number of cells in which neurites appeared/Total number of cells” value ([1]; 24 hour, 0.5 mM) was 3/50, the “The number of cells in which neurites appeared/Total number of cells” value ([1]; 48 hour, 0.2 mM) was 6/50 and the “The number of cells in which neurites appeared/Total number of cells” value ([1]; 48 hour, 0.5 mM) was 5/50. The “Estimated LD50” value (mouse; in vivo, ip) was over 1000 mg/kg.
With `CC(=O)N(C)c1ccnc(N2CCSCC2)n1` [Compound 216] the “Ratio” value (Mouse neuro 2a cells; 0.3 mM) was 4.4 ± 1.3%, the “Ratio” value (Mouse neuro 2a cells; 1 mM) was 15.8 ± 3.2% and the “The number of cells in which neurites appeared/Total number of cells” value ([1]; 24 hour, 0.2 mM) was 3/50. The “The number of cells in which neurites appeared/Total number of cells” value ([1]; 24 hour, 0.5 mM) was 3/50, the “The number of cells in which neurites appeared/Total number of cells” value ([1]; 48 hour, 0.5 mM) was 4/50 and the “Estimated LD50” value (mouse; in vivo, ip) was 500 to 1000 mg/kg.
With `O=C1CCCN1c1ccnc(N2CCCCC2)n1` [Compound 273] the “Ratio” value (Mouse neuro 2a cells; 0.01 mM) was 5.3 ± 0.8%, the “Ratio” value (Mouse neuro 2a cells; 0.1 mM) was 7.7 ± 2.0% and the “Ratio” value (Mouse neuro 2a cells; 0.3 mM) was 24.0 ± 3.2%. For the same compound, the “Ratio” value (Mouse neuro 2a cells; 1 mM) was 10.3 ± 4.0%, the “The number of cells in which neurites appeared/Total number of cells” value ([1]; 24 hour, 0.1 mM) was 10/50 and the “The number of cells in which neurites appeared/Total number of cells” value ([1]; 24 hour, 0.2 mM) was 15/50. The “The number of cells in which neurites appeared/Total number of cells” value ([1]; 24 hour, 0.5 mM) was 18/50, the “The number of cells in which neurites appeared/Total number of cells” value ([1]; 48 hour, 0.1 mM) was 8/50 and the “The number of cells in which neurites appeared/Total number of cells” value ([1]; 48 hour, 0.2 mM) was 16/50. The “The number of cells in which neurites appeared/Total number of cells” value ([1]; 48 hour, 0.5 mM) was 22/50 and the “Estimated LD50” value (mouse; [2]) was over 500 mg/kg.
With `CC1CCN(c2nccc(N3CCCC3=O)n2)CC1` [Compound 304] the “Ratio” value (Mouse neuro 2a cells; 0.03 mM) was 3.7 ± 1.2%, the “Ratio” value (Mouse neuro 2a cells; 0.1 mM) was 6.8 ± 1.0% and the “Ratio” value (Mouse neuro 2a cells; 0.3 mM) was 17.7 ± 2.9%. The “Ratio” value (Mouse neuro 2a cells; 1 mM) was 16.3 ± 4.5%, the “The number of cells in which neurites appeared/Total number of cells” value ([1]; 24 hour, 0.1 mM) was 8/50 and the “The number of cells in which neurites appeared/Total number of cells” value ([1]; 24 hour, 0.2 mM) was 12/50. The “The number of cells in which neurites appeared/Total number of cells” value ([1]; 24 hour, 0.5 mM) was 16/50, the “The number of cells in which neurites appeared/Total number of cells” value ([1]; 48 hour, 0.1 mM) was 7/50 and the “The number of cells in which neurites appeared/Total number of cells” value ([1]; 48 hour, 0.2 mM) was 14/50. The “The number of cells in which neurites appeared/Total number of cells” value ([1]; 48 hour, 0.5 mM) was 17/50 and the “Estimated LD50” value (mouse; in vivo, ip) was 250 to 500 mg/kg.
In the case of `CCC1CCN(c2nccc(N3CCCC3=O)n2)CC1` [Compound 312], the “Ratio” value (Mouse neuro 2a cells; 0.01 mM) is reported as 3.8 ± 0.6%, the “Ratio” value (Mouse neuro 2a cells; 0.03 mM) is reported as 4.1 ± 1.2% and the “Ratio” value (Mouse neuro 2a cells; 0.1 mM) is reported as 12.7 ± 2.8%. The “The number of cells in which neurites appeared/Total number of cells” value ([1]; 24 hour, 0.1 mM) was 6/50, the “The number of cells in which neurites appeared/Total number of cells” value ([1]; 24 hour, 0.2 mM) was 13/50 and the “The number of cells in which neurites appeared/Total number of cells” value ([1]; 24 hour, 0.5 mM) was 17/50. For the same compound, the “The number of cells in which neurites appeared/Total number of cells” value ([1]; 48 hour, 0.1 mM) was 8/50, the “The number of cells in which neurites appeared/Total number of cells” value ([1]; 48 hour, 0.2 mM) was 13/50 and the “The number of cells in which neurites appeared/Total number of cells” value ([1]; 48 hour, 0.5 mM) was 18/50. For the same compound, the “Estimated LD50” value (mouse; [2]) was over 500 mg/kg.
